# Test results: patent US5783562A, “Luteinizing hormone releasing hormone analogs” (Asta Medica Aktiengesellschaft, priority 1990, dated 1998)
# Like-named read-outs stand apart in the source and are kept apart here. Non-standard residues stand in square brackets, D forms with d. Residues, ends and D or L forms follow the SMILES beside them. dPhe(4-Cl) = N[C@H](Cc1ccc(Cl)cc1)C(=O)O; d2Nal = N[C@H](Cc1ccc2ccccc2c1)C(=O)O; d3Pal = N[C@H](Cc1cccnc1)C(=O)O
# Assays:
# [1] = system: mast cells; assay type: cell-based, rat
# Experimental: The healthy, adult, male SD rats (BW 200-250 g) used in this experiment were housed in the same conditions as for the adult, female SD rats above. After anesthetizing with CO2, the peritoneal cavity was washed with 50 ml of PIPES AC medium containing 20 units of heparin. Following centrifugation at 200×g for 8 min. at 4° C., the cells were washed again and resuspended to a concentration of 8-to-24×10^5 total leukocytes/ml in […]. This suspension contained approximately 5-10% mast cells. Washed cells were used immediately after collection and were prewarmed for 5 min. at 37° C. prior to pipetting 0.3 ml aliquots into polystyrene tubes containing 0.3 ml of diluted peptide. The mixtures were incubated for 15 min. at 37° C., and the reaction was stopped by centrifugation at 400×g for 15 min. at 4° C. The supernatants were assayed for histamine content by manual fluorometric assay method after successful extraction with n-butanol and n-heptane. The histamine content can be obtained from the histamine standard curve (see below). The percentage of histamine release can be calculated from the following equation: [formula] where E is the fluorometric reading of the experimental sample, B is the fluorometric reading of samples with cells and buffer only, and C is the fluorometric reading of "complete" samples (cells treated with HCIO4). The standard curve can be obtained by plotting the OD values on a fluorometer at 350 nm/450 nm (activation/fluorescent) against the concentrations of serially diluted solutions of accurately weighed histamine hydrochloride. The relative parameter (r) of the histamine standard curve can be 0.9998, and the lowest detectable concentration of histamine is 0.5 ng/ml. The ED50 value of a peptide can be determined from the dose response curves obtained by plotting the histamine release versus the peptide concentration on semilogarithmic paper. All peptide samples should be tested with mast cells from a minimum of 3 different rats.
# [2] = Water-solubility / hydrophilicity of the peptides; assay type: physicochemical
# [3] = system: mast cells; settings: neuropeptide SP, background; cited from earlier work
# [4] = system: rat ovulation; experiment: Corbin's rat antiovulation method (antiovulatory activity, AOA); assay type: in vivo; settings: in saline, at noon of proestrus, female SD rats
# Experimental: Corbin's rat antiovulation method was used in the present invention. Healthy, adult, female SD rats (BW 200-250 g) were used in this experiment. All animals were maintained at 22°-24° C. and on a 14 hr./10 hr. (light/dark) schedule. They were given standard food and water ad libitum. Only those rats showing at least two consecutive 4-day estrous cycles in vaginal smear examination could be used in this experiment. The rats were given peptides (LHRH antagonists) at noon of proestrus with different doses in saline solution. The rats were sacrificed the next day, and both portions of their oviducts were examined using a dissecting microscope in order to determine the ovum number. The rats were divided into several groups according to the dosing, and each group consisted of about 10 rats. The control group, which was given an equivalent amount of saline, consisted of 9-10 rats. […] Evaluation of Histamine Releasing Activity
molecule,measurement,setting,value
CC(=O)N[C@H](Cc1ccc2ccccc2c1)C(=O)N[C@H](Cc1ccc(Cl)cc1)C(=O)N[C@H](Cc1ccc(O)cc1)C(=O)N[C@@H](CO)C(=O)N[C@@H](CCCCN)C(=O)N[C@H](Cc1cccnc1)C(=O)N[C@@H](CC(C)C)C(=O)N[C@@H](CCCNC(=N)N)C(=O)N1CCC[C@H]1C(=O)N[C@H](C)C(N)=O [Compound 4] (Ac-[d2Nal][dPhe(4-Cl)][dY]SK[d3Pal]LRP[dA]-NH2),HRA (μg/ml) ED50 ± SEM,[1],6.1 µg/mL
"CC(=O)N[C@H](Cc1ccc2ccccc2c1)C(=O)N[C@H](Cc1ccc(Cl)cc1)C(=O)N[C@H](Cc1cccnc1)C(=O)N[C@@H](CO)C(=O)N[C@@H](Cc1ccc(O)cc1)C(=O)N[C@H](Cc1cccnc1)C(=O)N[C@@H](CC(C)C)C(=O)N[C@@H](CCCNC(=N)N)C(=O)N1CCC[C@H]1C(=O)N[C@H](C)C(N)=O [III, NAc-D2Nal^1 -DpClPhe^2 -D3Pal^3 -Ser^4 -Tyr^5 -D3Pal^6 -Leu^7 -Arg^8 -Pro^9 -DAla^10 -NH2] (Ac-[d2Nal][dPhe(4-Cl)][d3Pal]SY[d3Pal]LRP[dA]-NH2)",HRA (μg/ml) ED50 ± SEM,[1],9.8 µg/mL
"CC(=O)N[C@H](Cc1ccc2ccccc2c1)C(=O)N[C@H](Cc1ccc(Cl)cc1)C(=O)N[C@H](Cc1cccnc1)C(=O)N[C@@H](CO)C(=O)N[C@@H](CCCNC(=N)N)C(=O)N[C@H](Cc1cccnc1)C(=O)N[C@@H](CC(C)C)C(=O)N[C@@H](CCCNC(=N)N)C(=O)N1CCC[C@H]1C(=O)N[C@H](C)C(N)=O [IV, NAc-D2Nal^1 -DpClPhe^2 -D3Pal^3 -Ser^4 -Arg^5 -D3Pal^6 -Leu^7 -Arg^8 -Pro^9 -DAla^10 -NH2] (Ac-[d2Nal][dPhe(4-Cl)][d3Pal]SR[d3Pal]LRP[dA]-NH2)",hydrophilicity,[2],very strong hydrophilicity
Arg^1 -Pro^2 -Lys^3 -Pro^4 -Gln^5 -Gln^6 -Phe^7 -Phe^8 -Gly^9 -Leu^10 -Met^11 -NH2 [neuropeptide SP],ED50 for HRA,[3],5 to 15 µM
NAc-D2Nal^1 -DpClPhe^2 -DPhe^3 Ser^4 -Arg^5 -D3Pal^6 -Leu^7 -Arg^8 -Pro^9 -DAla^10 -NH2 [V],% AOA/μg 0.25,[4]; 0.25 μg,29%
same,% AOA/μg 0.5,[4]; 0.5 μg,60%
same,% AOA/μg 1.0,[4]; 1.0 μg,100%
same,HRA (μg/ml) ED50 ± SEM,"[1]; in vitro histamine release, rat peritoneal mast cells",7.4 µg/mL
